Values of other authors, collected in patent US10668050B2, “Compositions, methods and kits for treating diarrhea-predominant irritable bowel syndrome” (RedHill Biopharma Ltd., priority 2014, dated 2020).
Structures can show the parent of a compound that is named as a salt.

Legend:
[1] = scale of Pliska et al., J. Chromatog. 216, 79, 1981

hydropathy value (relative hydrophobic character) [1]	solubility	Structure (SMILES)
1.83	–	CC[C@H](C)[C@H](N)C(=O)O [iso-leucine]
−2.15	–	N[C@@H](CC(=O)O)C(=O)O [aspartic acid]
0	–	NCC(=O)O [glycine]
–	soluble in water and normal saline	Cc1nccn1CC1CCc2c(c3ccccc3n2C)C1=O (racemic) [Ondansetron HCl dihydrate, Ondansetron hydrochloride]
